Reference: US20100016285A1, “HETEROCYCLIDENE-N-(ARYL) ACETAMIDE DERIVATIVE” (MOCHIDA PHARMACEUTICAL CO., LTD., priority 2007, published 2010)

What was measured:
[1] = Effects on rectal temperature (8-1), oral administration to rats; format: in vivo, rat; conditions: oral single doses of 3, 10 and 30 mg/kg; 30, 60 and 120 minutes; maximum absolute difference vs vehicle
Experimental: (8-1) Effects on Rectal Temperature
A test compound was orally administered to rats at single doses of 3, 10 and 30 mg/kg. Then rectal temperature was measured 30, 60 and 120 minutes after administration.
Differences of the mean value between a group treated with test substance and a vehicle-treated group were calculated at all measuring points and, based on the maximum absolute value of differences, changes in rectal temperature were divided into the following three categories:
−: the maximum value was less than 0.5 degree Celsius +: the maximum value was more than 0.5 degree but less than 1.0 degree Celsius ++: the maximum value was more than 1.0 degree Celsius

[2] = target: T1, human TRPV1 (Homo sapiens, UniProt Q8NER1); assay: Capsaicin-induced Ca influx in transformed CHO cells, FDSS-6000 (b-1), A2 value; format: cell-based; conditions: concentration shifting the capsaicin concentration-reaction curve two times rightward; CHO cells expressing TRPV1
T1 construct: expressed in transfected cells; host or cells: CHO-K1 cells, pCAGGS vector, clones selected by limiting dilution
T1 sequence (Q8NER1 whole entry): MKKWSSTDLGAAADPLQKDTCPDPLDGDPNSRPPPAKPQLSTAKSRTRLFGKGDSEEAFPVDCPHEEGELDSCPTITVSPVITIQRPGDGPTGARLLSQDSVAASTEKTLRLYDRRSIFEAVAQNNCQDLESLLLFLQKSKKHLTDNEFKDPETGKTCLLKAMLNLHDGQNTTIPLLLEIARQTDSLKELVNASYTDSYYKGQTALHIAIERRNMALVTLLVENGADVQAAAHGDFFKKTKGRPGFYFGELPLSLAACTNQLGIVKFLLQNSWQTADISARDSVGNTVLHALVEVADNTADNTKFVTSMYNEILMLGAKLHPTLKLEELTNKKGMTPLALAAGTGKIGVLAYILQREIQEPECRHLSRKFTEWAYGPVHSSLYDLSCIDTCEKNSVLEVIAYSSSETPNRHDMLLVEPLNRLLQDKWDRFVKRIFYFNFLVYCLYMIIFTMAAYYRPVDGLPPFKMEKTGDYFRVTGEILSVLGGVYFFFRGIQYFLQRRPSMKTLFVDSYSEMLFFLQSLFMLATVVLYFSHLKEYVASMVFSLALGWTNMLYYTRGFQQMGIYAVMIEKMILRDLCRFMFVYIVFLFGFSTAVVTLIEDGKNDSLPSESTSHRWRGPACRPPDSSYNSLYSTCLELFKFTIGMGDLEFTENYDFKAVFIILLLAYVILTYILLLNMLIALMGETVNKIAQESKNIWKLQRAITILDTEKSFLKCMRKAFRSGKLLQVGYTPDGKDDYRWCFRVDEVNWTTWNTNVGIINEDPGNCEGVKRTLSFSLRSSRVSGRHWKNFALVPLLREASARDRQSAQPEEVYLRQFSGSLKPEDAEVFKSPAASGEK
From the text: (1) Measurement of Capsaicin-Induced Ca Influx in a Transformed CHO Cell Line Expressing Human TRPV1
(a) Establishment of a Transformed CHO Cell Line Expressing Human and Rat TRPV1
Human and rat vanilloid receptor 1 (hTRPV1 and rTRPV1) cDNA was cloned from human brain and rat dorsal root ganglion, respectively. The cloned TRPV1 cDNA was incorporated in a pCAGGS vector. The vector was introduced to a CHO-K1 cell line, thus performing transformation. Clones obtained by limiting dilution were stimulated with capsaicin. Clones with a high responsiveness were selected using an increase in the Ca concentration as an indicator. The selected clones were used for the following experiment.
(b-1) Measurement of Ca Influx using FDSS-6000
The transformed CHO cells expressing human or rat TRPV1 were seeded in a 96-well plate (with black walls and transparent bottoms, manufactured by Greiner) at a density of 40,000 cells per well. The cells were cultured at 37° C. in 5% CO2 atmosphere for one night. A loading solution of FLIPR Calcium 3 assay kit (manufactured by Molecular Devices Corporation) containing 2.5 mmol/L of probenecid was then added to each of the wells in the same amount as the culture medium, and the cells were cultured at 37° C. for 60 minutes. For three minutes after the cells were stimulated with capsaicin (1 nmol/L to 1 μmol/L), the change of the intracellular Ca concentration was measured using FDSS-6000 (λex: 480 nm, λem: […], manufactured by Hamamatsu Photonics K.K.). The integrated values of the increase rate of the intracellular Ca concentration were calculated for a group treated with the compounds of the present invention and a group treated with a vehicle, thus allowing capsaicin concentration-reaction curves to be obtained. A concentration (A2 value) of each of the compounds of the present invention, at which the capsaicin concentration-reaction curve obtained when the cells were treated with the vehicle was shifted two times rightward, was calculated. The inhibitory effects of the test compounds were compared using this value as an indicator.

| SMILES | Change in rectal temperature in rats [1] | A2 value [2] |
| --- | --- | --- |
| CC1(C)C/C(=C\C(=O)Nc2ccc3c(c2)NC(=O)C3(C)C)c2ccc(C(F)(F)F)cc2O1 [Example 109, (E)-2-(7-trifluoromethyl-2,2-dimethylchroman-4-ylidene)-N-(3,3-dimethyl-2(1H)-indolinon-6-yl)acetamide] | − (the maximum value was less than 0.5 degree Celsius) | – |
| CN1C(=O)NCc2ccc(NC(=O)/C=C3\CCOc4cc(C(F)(F)F)ccc43)cc21 [Example 151, (E)-2-(7-trifluoromethyl-chroman-4-yliden)-N-(3,4-dihydro-1-methyl-2(1H)-quinazolinon-7-yl)acetamide] | − (the maximum value was less than 0.5 degree Celsius) | – |
| CC1(C)C/C(=C\C(=O)Nc2ccc3c(c2)NC(=O)C(N2CCOCC2)C3)c2ccc(C(F)(F)F)cc2O1 (single isomer, unassigned) [Example 213, (E)-2-(7-trifluoromethyl-2,2-dimethylchroman-4-ylidene)-N-(3-(4-morpholinyl)-3,4-dihydro-2(1H)-quinolinon-7-yl)acetamide] | − (the maximum value was less than 0.5 degree Celsius) | – |
| CN1c2cc(NC(=O)/C=C3\CC4(CCC4)Oc4cc(C(F)(F)F)ccc43)ccc2CCS1(=O)=O [Example 200, (E)-2-(7-trifluoromethyl-spiro[chroman-2,1′-cyclobutane]-4-ylidene)-N-(3,4-dihydro-2,2-dioxo-1-methyl-1H-2,1-benzothiazin-7-yl)acetamide] | − (the maximum value was less than 0.5 degree Celsius) | – |
| CN1Cc2ccc(NC(=O)/C=C3\CCCOc4cc(C(F)(F)F)ccc43)cc2NC1=O [EXAMPLE 14, (E)-2-(8-trifluoromethyl-3,4-dihydrobenzo[b]oxepin-5(2H)-ylidene)-N-(3-methyl-3,4-dihydro-2(1H)-quinazolinon-7-yl)acetamide] | − (the maximum value was less than 0.5 degree Celsius) | – |
| O=C(/C=C1\CCCOc2cc(C(F)(F)F)ccc21)Nc1ccc2c(c1)NC(=O)C(N1CCSCC1)C2 (centres unmarked) [EXAMPLE 54, (E)-2-(B-trifluoromethyl-3,4-dihydrobenzo[b]oxepin-5(2H)-ylidene)-N-(3-(4-thiomorpholinyl)-3,4-dihydro-2(1H)-quinolinon-7-yl)acetamide] | – | A (A2 value of less than 100 nM) |
| CN1C(=O)N(Cc2ccccc2)Cc2ccc(NC(=O)/C=C3\CCCOc4cc(C(F)(F)F)ccc43)cc21 [EXAMPLE 39, (E)-2-(8-trifluoromethyl-3,4-dihydrobenzo[b]oxepin-5(2H)-ylidene)-N-(3-benzyl-1-methyl-3,4-dihydro-2(1H)-quinazolinon-7-yl)acetamide] | – | A (A2 value of less than 100 nM) |
| O=C(/C=C1\CCCOc2cc(C(F)(F)F)ccc21)Nc1ccc2c(c1)NS(=O)(=O)NC2 [EXAMPLE 17, (E)-2-(8-trifluoromethyl-3,4-dihydrobenzo[b]oxepin-5(2H)-ylidene)-N-(3,4-dihydro-2,2-dioxo-1-H-2,1,3-benzothiadiazin-7-yl)acetamide] | – | A (A2 value of less than 100 nM) |
| O=C(/C=C1\CCCOc2cc(C(F)(F)F)ccc21)Nc1ccc2c(c1)NC(=O)C(N1CCOCC1)C2 (centres unmarked) [EXAMPLE 30, (E)-2-(8-trifluoromethyl-3,4-dihydrobenzo[b]oxepin-5(2H)-ylidene)-N-(3-(4-morpholinyl)-3,4-dihydro-2(1H)-quinolinon-7-yl)acetamide] | − (the maximum value was less than 0.5 degree Celsius) | – |
| O=C(/C=C1\CCCOc2cc(C(F)(F)F)ccc21)Nc1ccc2c(c1)NC(=O)C(N1CCCC1)C2 (centres unmarked) [EXAMPLE 46] | – | A (A2 value of less than 100 nM) |
| O=C(/C=C1\CCCOc2cc(C(F)(F)F)ccc21)Nc1ccc2c(c1)NC(=O)C(CO)N2 (centres unmarked) [EXAMPLE 9, (E)-2-(8-trifluoromethyl-3,4-dihydrobenzo[b]oxepin-5(2H)-ylidene)-N-(3-hydroxymethyl-3,4-dihydro-2(1H)-quinoxalinon-7-yl)acetamide] | – | A (A2 value of less than 100 nM) |
| O=C(/C=C1\CCCOc2cc(C(F)(F)F)ccc21)Nc1ccc2c(c1)NC(=O)C(N1CCNCC1)C2 (centres unmarked) [EXAMPLE 52, (E)-2-(8-trifluoromethyl-3,4-dihydrobenzo[b]oxepin-5(2H)-ylidene)-N-(3-(1-piperazinyl)-3,4-dihydro-2(1H)-quinolinon-7-yl)acetamide] | – | B (A2 value of 100 nM or more) |
| CN1c2ccc(NC(=O)/C=C3\CCCOc4cc(C(F)(F)F)ccc43)cc2NC(=O)C1(C)C [EXAMPLE 11, (E)-2-(8-trifluoromethyl-3,4-dihydrobenzo[b]oxepin-5(2H)-ylidene)-N-(3,3-dimethyl-4-methyl-3,4-dihydro-2(1H)-quinoxalinon-7-yl)acetamide] | – | A (A2 value of less than 100 nM) |
| COCCN(CCOC)C1Cc2ccc(NC(=O)/C=C3\CCCOc4cc(C(F)(F)F)ccc43)cc2NC1=O (centres unmarked) [EXAMPLE 44] | – | A (A2 value of less than 100 nM) |
| COC1CCN(C2Cc3ccc(NC(=O)/C=C4\CCCOc5cc(C(F)(F)F)ccc54)cc3NC2=O)CC1 (centres unmarked) [EXAMPLE 55, (E)-2-(8-trifluoromethyl-3,4-dihydrobenzo[b]oxepin-5(2H)-ylidene)-N-(3-(4-methoxy-1-piperidinyl)-3,4-dihydro-2(1H)-quinolinon-7-yl)acetamide] | – | A (A2 value of less than 100 nM) |
| O=C(/C=C1\NCCOc2cc(C(F)(F)F)ccc21)Nc1ccc2c(c1)NC(=O)CC2 [EXAMPLE 27, (Z)-2-(8-trifluoromethyl-3,4-dihydrobenzo[f][1,4]oxazepin-5(2H)-ylidene)-N-(3,4-dihydroquinolin-2(1H)-on-7-yl)acetamide] | – | A (A2 value of less than 100 nM) |
| O=C(/C=C1\CCCOc2cc(C(F)(F)F)ccc21)Nc1ccc2c(c1)NC(=O)C(N1CCCOCC1)C2 (centres unmarked) [EXAMPLE 53, (E)-2-(8-trifluoromethyl-3,4-dihydrobenzo[b]oxepin-5(2H)-ylidene)-N-(3-([1,4]oxazepan-4-yl)-3,4-dihydro-2(1H)-quinolinon-7-yl)acetamide] | – | A (A2 value of less than 100 nM) |
| CC1(CO)Nc2ccc(NC(=O)/C=C3\CCCOc4cc(C(F)(F)F)ccc43)cc2NC1=O (centres unmarked) [EXAMPLE 40, (E)-2-(8-trifluoromethyl-3,4-dihydrobenzo[b]oxepin-5(2H)-ylidene)-N-(3-hydroxymethyl-3-methyl-3,4-dihydro-2(1H)-quinoxalinon-7-yl)acetamide] | – | A (A2 value of less than 100 nM) |
| O=C(/C=C1\CCCOc2cc(C(F)(F)F)ccc21)Nc1ccc2c(c1)NS(=O)(=O)CC2 [Example 59, (E)-2-(8-trifluoromethyl-3,4-dihydrobenzo[b]oxepin-5(2H)-ylidene)-N-(2,2-dioxo-3,4-dihydro-(1H)-2,1-benzothiazin-7-yl)acetamide] | – | A (A2 value of less than 100 nM) |
| O=C(/C=C1\CCCOc2cc(C(F)(F)F)ccc21)Nc1ccc2c(c1)NC(=O)C(CCO)O2 (centres unmarked) [Example 3, (E)-2-(8-trifluoromethyl-3,4-dihydrobenzo[b]oxepin-5(2H)-ylidene)-N-(2-(2-hydroxyethyl)-4H-benzo[1,4]oxazin-3-on-6-yl)acetamide] | – | A (A2 value of less than 100 nM) |
| O=C(/C=C1\CCCOc2cc(C(F)(F)F)ccc21)Nc1ccc2c(c1)NC(=O)C(N1CCOCC1)C2 (centres unmarked) [EXAMPLE 34, (E)-2-(8-trifluoromethyl-3,4-dihydrobenzo[b]oxepin-5(2H)-ylidene)-N-(3-(4-morpholinyl)-3,4-dihydro-2(1H)-quinolinon-7-yl)acetamide] | – | A (A2 value of less than 100 nM) |
| COCCN1Cc2ccc(NC(=O)/C=C3\CCCOc4cc(C(F)(F)F)ccc43)cc2NC1=O [EXAMPLE 16, (E)-2-(8-trifluoromethyl-3,4-dihydrobenzo[b]oxepin-5(2H)-ylidene)-N-(3-(2-methoxyethyl)-3,4-dihydro-2(1H)-quinazolinon-7-yl)acetamide] | – | A (A2 value of less than 100 nM) |
| O=C(/C=C1\CCCOc2cc(C(F)(F)F)ccc21)Nc1cccc2c1CCC(=O)N2 [compound 18, (E)-2-(8-trifluoromethyl-3,4-dihydrobenzo[b]oxepin-5(2H)-ylidene)-N-(3,4-dihydro-2(1H)-quinolinon-5-yl)acetamide] | – | A (A2 value of less than 100 nM) |
